What was measured:
TG-5 = assay: Western blot of TG proteins in human scleral fibroblasts after muscarinic agents; assay type: cell-based; settings: 0.01-10 μM for 5 days
TG-1 = assay: as above; assay type: cell-based; settings: 0.01-10 μM for 5 days
TG-2 = TG-2 colorimetric microassay (transamidase activity) in lysate of treated mouse scleral fibroblasts; assay type: cell-based; settings: murine scleral derived fibroblasts, 0.01-10 μM for 5 days
TGase-3 transcript = assay: qPCR of TGases mRNA in mouse scleral fibroblasts after muscarinic agents; assay type: cell-based; settings: 0.01-10 μM for 5 days, qPCR normalized to GAPDH
Protocol: (§1) P2 cultured mouse scleral fibroblasts were treated with atropine or carbachol at different concentrations of 0.01 μM, 0.1 μM, […], 5 μM and 10 μM for 5 days. Following 5 days of treatment, the total RNA was extracted from these cells and TGases transcript level was quantified via qPCR analysis. Height of bars show the means of three independent samples and error bars represent standard deviation. Values are normalized against GAPDH house keeping genes.
(§2) All cells used in examples described herein were between passages 2-4. Passaged cells were plated at a concentration of 2×10^5/mL into 6 well plates containing DMEM with 10% FBS. The cells were seen to attach to the bottom of the culture wells after 4 hours. Old media was removed from wells and 1 mL of drug was added with fresh full medium and incubated at 37° C. Fresh drugs were replaced daily consecutively for the next 5 days to avoid oxidation. The drugs/media was removed and wells were washed twice with 1×PBS. 200 μl of RIPA lysis buffer was added per well and incubated for 5 minutes and cells were scrapped into an eppendorf tube. The cells were stored at −20° C. until sonication. The cells were sonicated on ice thrice at 20% output power for 5 seconds each time and rested 1 minute in between each turn. Cell debris was spun down at 12000 rpm for 20 minutes. The supernatant was poured into a new eppendorf tube and cell concentrations were determined using the Dc Protein assay Kit (Bio-Rad, MA). Passaged cells were plated at a concentration of 1×10^5 into 6 well plates containing DMEM with 10% FBS. The cells were seen to attach to the bottom of the culture wells after 4 hours. Freshly prepared muscarinic agents' at base line, 0.1, 1, 10 and 100 μM concentrations were added for 5 days (Table 2). The culture medium was removed and fresh medium containing the same muscarinic drug added every day to avoid drug changes such as atropine oxidation. Cell lysate was collected for relative quantitative (q) PCR and protein analysis at day 5.
(§3) Total RNA was isolated from cultured human and mouse scleral fibroblasts using TRIzol reagent (Invitrogen life technologies, USA) in accordance with the manufacturer's instructions Chomczynski P, Sacchi N., “Single-step method of RNA isolation by acid guanidinium thiocyanate-phenol-chloroform extraction”, Anal. Biochem. 1987 April; 162(1):156-9. Genomic DNA was removed by digestion with DNase I (Amp Grade; Invitrogen-Gibco) for 15 minutes at room temperature. One microgram of total RNA was reverse-transcribed with random hexamers by using a first-strand cDNA synthesis kit (Invitrogen-Gibco). qPCR was performed in a 384-well plate format on an Roche 480 LightCycler Detection System (Roche Applied Science, Mannheim, Germany) with efficiency corrected software 4.0. PCR was performed using 50 ng of cDNA of each sample. The pre-validated hydrolysis probes for TG-2 were from human and mouse universal probe library (Roche, CA) and the primers for human and mouse are shown in Table 3. GAPDH Internal Standard (Roche) was used as an endogenous control. To standardize and evaluate scleral gene expression, aliquots of the same cDNA (50 ng) preparation were used as templates in all PCR reactions. The data was analyzed by comparative CT (MCT) method as previously described in Brink N, Szamel M, Young A R, Wittern K P, Bergemann J., “Comparative quantification of IL-1, IL-10, Il-10r, TNF and IL-7 mRNA levels in UV-irradiated human skin in vivo”, Inflamm Res. 2000 June; 49(6):290-6.

TGase 5 transcript = assay: as above; assay type: cell-based; settings: 0.01-10 μM for 5 days, qPCR normalized to GAPDH
Protocol: as §1, §2, §3

TGase 1 transcript = assay: as above; assay type: cell-based; settings: 0.01-10 μM for 5 days, qPCR normalized to GAPDH
Protocol: as §1, §2, §3

hM5 = molecular target: T1, hM5 (Homo sapiens, UniProt P08912); assay: himbacine binding to cloned muscarinic receptor subtypes; settings: cloned receptor subtype; data not shown
T1 sequence (P08912 1-532): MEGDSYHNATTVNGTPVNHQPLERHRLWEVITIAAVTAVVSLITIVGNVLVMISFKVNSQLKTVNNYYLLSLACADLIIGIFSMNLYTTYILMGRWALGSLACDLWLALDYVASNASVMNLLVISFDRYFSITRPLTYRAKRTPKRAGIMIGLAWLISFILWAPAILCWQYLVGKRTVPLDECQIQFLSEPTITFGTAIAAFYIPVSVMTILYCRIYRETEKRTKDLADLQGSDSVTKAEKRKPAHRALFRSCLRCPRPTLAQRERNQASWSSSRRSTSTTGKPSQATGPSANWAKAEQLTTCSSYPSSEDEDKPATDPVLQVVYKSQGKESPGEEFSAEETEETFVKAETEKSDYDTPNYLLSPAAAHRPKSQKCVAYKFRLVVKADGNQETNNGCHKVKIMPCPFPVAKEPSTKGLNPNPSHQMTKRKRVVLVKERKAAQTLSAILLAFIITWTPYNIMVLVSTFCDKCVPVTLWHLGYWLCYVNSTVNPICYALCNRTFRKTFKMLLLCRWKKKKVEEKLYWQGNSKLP

hM2 = molecular target: T2, hM2 (Homo sapiens, UniProt P08172); assay: biochemical
T2 sequence (P08172 1-466): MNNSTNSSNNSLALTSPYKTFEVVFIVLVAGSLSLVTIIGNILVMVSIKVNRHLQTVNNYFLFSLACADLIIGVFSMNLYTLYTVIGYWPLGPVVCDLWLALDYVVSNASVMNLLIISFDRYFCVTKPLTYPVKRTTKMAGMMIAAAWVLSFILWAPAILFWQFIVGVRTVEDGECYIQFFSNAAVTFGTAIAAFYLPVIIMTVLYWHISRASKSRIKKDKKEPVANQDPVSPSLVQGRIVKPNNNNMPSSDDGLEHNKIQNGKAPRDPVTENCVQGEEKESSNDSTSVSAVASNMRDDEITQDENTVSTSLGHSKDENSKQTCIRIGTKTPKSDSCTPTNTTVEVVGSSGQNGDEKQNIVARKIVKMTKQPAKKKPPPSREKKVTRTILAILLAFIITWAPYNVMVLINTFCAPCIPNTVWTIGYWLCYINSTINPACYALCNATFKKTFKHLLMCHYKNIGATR
Source text: In some embodiments, the TG-2 inhibitors described herein can target the respective TG-2 protein and/or the expression of TGM-2. In other embodiments, the TG-2 inhibitors can further target at least one muscarinic receptor, for example M2 or M3 or inhibit the expression of at least one muscarinic receptor for example, M2 or M3.

**Q.** Which TG-5 protein level (TG-5) does the source give for CN1[C@@H]2CC[C@H]1C[C@@H](OC(=O)C(CO)c1ccccc1)C2 (some centres unmarked) [atropine] here?
**A.** Its TG-5 protein level is “reduced”.

**Q.** And the TG-1 protein level (TG-1)?
**A.** Its TG-1 protein level is “reduced”.

**Q.** What about the “transamidase (cross-linking) activity of TG-2” value (TG-2) of the same compound?
**A.** Its value is “reduction”.

**Q.** And the TGase-3 transcript level (TGase-3 transcript)?
**A.** The TGase-3 transcript level was “upregulated”.

**Q.** And the “TGase 5 transcript level” value (TGase 5 transcript)?
**A.** Its value is “down regulated”.

**Q.** What about the “TGase 1 transcript level” value (TGase 1 transcript) of the same compound?
**A.** Its value is “down regulated”.

**Q.** What does the source list for C[C@@H]1OC(=O)[C@H]2C[C@H]3CCCC[C@@H]3[C@@H](/C=C/[C@H]3CCC[C@H](C)N3C)[C@@H]12 [himbacine]?
**A.** Kd (hM5): 0.296 µM; Kd (hM2): 0.004 µM

Reference: patent US20140050779A1, “[…]-2 INHIBITORS AND USES THEREOF” (SINGAPORE HEALTH SERVICES PTE. LTD., priority 2011, published 2014)
